This note sets out measurements from ChEMBL document CHEMBL4392880, “Bioactive Diterpenoids from the Stems of Euphorbia antiquorum” (J Nat Prod, 2019).

For data set [1], the system named is BV-2. The data set can be described thus: Cytotoxicity against mouse BV2 cells assessed as effect on cell survival by MTT assay. Type of data set: cell-based.
Data set [2] relates to BV-2. The data set is described as follows: Antiinflammatory activity in mouse BV2 cells assessed as inhibition of LPS-induced nitric oxide production incubated for 24 hrs by Griess assay. Type of data set: functional, cell-based. The following applies: BV-2, 24 h.

For the compound `CSC(=N)N.O=S(=O)(O)O`, the Activity result in the data set on BV-2 [1] is given as “Non-Toxic”. In addition, in the data set with BV-2 [2], the IC50 stood at 3.1 µM.

In the case of `CC1(C)CCC[C@]2(C)[C@@H]1CC[C@@]13O[C@@H]1C1=C(CO)C(=O)OC1=C[C@@H]23`, the Activity entry in the data set with BV-2 [1] was “Non-Toxic”. Besides, in the data set with BV-2 [2], the IC50 is 9.1 µM.

As to `CCCC(=O)OC[C@]1(C)C(=O)CC[C@@]2(C)[C@@H]3CC[C@@H]4C[C@@]3(CC[C@@H]21)C[C@@]4(O)CO`, the Activity result in the data set with BV-2 [1] is on record as “Non-Toxic”. Also, in the data set with BV-2 [2], the IC50 stood at 42.9 µM.

For the compound `C/C=C(\C)C(=O)O[C@H]1[C@H]2[C@@H]([C@@H](OC(C)=O)[C@@H](C)C(=O)[C@@]34C[C@H](C)[C@H](OC(=O)c5ccccc5)[C@]3(/C=C(\C)[C@H]1O)O4)C2(C)C`, the Activity entry in the data set on BV-2 [1] is given as “Non-Toxic”. Moreover, in the data set on BV-2 [2], the IC50 was found to be 14.5 µM.

Regarding `C=C1C[C@@]23CC[C@H]4[C@@](C)(CCC(=O)[C@@]4(C)COC(C)=O)[C@@H]2C[C@@H]1[C@@H](O)C3=O`, the Activity entry in the data set on BV-2 [1] is recorded as “Non-Toxic”. Moreover, in the data set on BV-2 [2], the IC50 is more than 100 µM.

For `CC1(C)C(=O)CC[C@]2(C)[C@@H]1CC[C@@]13C[C@H](CC[C@H]12)[C@@](O)(CO)C3`, in the data set on BV-2 [1], the Activity result was “Non-Toxic”. Further, the IC50 in the data set with BV-2 [2] was more than 100 µM.

`C=C1C[C@@]23CC[C@H]4[C@@](C)(CCC(=O)[C@@]4(C)COC(=O)/C(C)=C/C)[C@@H]2C[C@@H]1[C@@H](O)C3=O`: the Activity result in the data set with BV-2 [1] is on record as “Non-Toxic”. Also, the 50% inhibitory concentration (IC50) with BV-2 [2] came out at 44.3 µM.

Consider `C=C1C[C@@]23CC[C@H]4[C@@](C)(CCC(=O)[C@@]4(C)COC(=O)CCC)[C@@H]2C[C@@H]1[C@@H](O)C3=O`, for which, in the data set with BV-2 [1], the Activity result was “Non-Toxic”. Moreover, in the data set on BV-2 [2], the 50% inhibitory concentration (IC50) was more than 100 µM.

Take `C=C1C[C@]23CC[C@H]1C[C@H]2[C@]1(C)CCC(=O)[C@@](C)(CO)[C@H]1CC3`: the Activity entry with BV-2 [1] is “Non-Toxic”. The concentration for half-maximal inhibition (IC50) in the data set on BV-2 [2] was 25.4 µM.

Turning to `CCC(=O)OC[C@]1(C)C(=O)CC[C@@]2(C)[C@@H]3C[C@@H]4CC[C@@]3(CC[C@@H]21)C[C@@]4(O)CO`, the Activity entry in the data set with BV-2 [1] is “Non-Toxic”. For the same compound, in the data set on BV-2 [2], the IC50 worked out at 76.6 µM.

For the compound `C/C=C(\C)C(=O)O[C@H]1[C@H]2[C@@H]([C@@H](OC(C)=O)[C@@H](C)C(=O)[C@@]34C[C@H](C)[C@H](OC(=O)/C(C)=C/C)[C@]3(/C=C(\C)[C@H]1O)O4)C2(C)C`, in the data set on BV-2 [1], the Activity result was “Non-Toxic”. Moreover, the IC50 in the data set on BV-2 [2] turned out to be 26.9 µM.

Regarding `CC1=C2[C@H]3O[C@]34CC[C@@H]3C(C)(C)CCC[C@@]3(C)[C@@H]4C[C@H]2OC1=O`, in the data set on BV-2 [1], the Activity result was “Non-Toxic”. Besides, the concentration for half-maximal inhibition (IC50) with BV-2 [2] stood at 15 µM.

With `C=C1C[C@@]23CC[C@H]4[C@@](C)(CCC(=O)[C@@]4(C)COC(C)=O)[C@@H]2C[C@@H]1CC3=O`, the Activity result with BV-2 [1] is on record as “Non-Toxic”. Also, the IC50 with BV-2 [2] worked out at 77 µM.

In the case of `C=C1C[C@@]23CC[C@H]4[C@@](C)(CCC(=O)[C@@]4(C)COC(=O)/C(C)=C/C)[C@@H]2C[C@@H]1CC3=O`, the Activity result in the data set with BV-2 [1] is recorded as “Non-Toxic”. For the same compound, the IC50 with BV-2 [2] turned out to be 28.8 µM.

As to `C/C=C(\C)C(=O)O[C@H]1[C@H]2[C@@H]([C@@H](OC(C)=O)[C@@H](C)C(=O)[C@@]34C[C@H](C)[C@H](OC(C)=O)[C@]3(/C=C(\C)[C@H]1O)O4)C2(C)C`, the Activity result with BV-2 [1] is on record as “Non-Toxic”. For the same compound, in the data set on BV-2 [2], the IC50 is more than 100 µM.

For the compound `C=C1C[C@@]23CC[C@H]4[C@@](C)(CCC(=O)[C@@]4(C)COC(=O)CCC)[C@@H]2C[C@@H]1CC3=O`, the Activity result with BV-2 [1] is given as “Non-Toxic”. For the same compound, in the data set with BV-2 [2], the IC50 is more than 60 µM.

In the case of `CCCC(=O)OC[C@]1(C)C(=O)CC[C@@]2(C)[C@@H]3C[C@@H]4CC[C@@]3(CC[C@@H]21)C[C@@]4(O)CO`, the Activity result with BV-2 [1] was “Non-Toxic”. In addition, in the data set on BV-2 [2], the IC50 turned out to be 42.4 µM.

For `CC(=O)O[C@H]1CCC(C)(C)[C@H]2CC[C@@]34O[C@@H]3C3=C(C)C(=O)O[C@@H]3C[C@H]4[C@]12C`, the Activity result in the data set with BV-2 [1] is “Non-Toxic”. The IC50 in the data set with BV-2 [2] turned out to be 24.1 µM.

`C=C[C@]1(C)C=C2CC[C@H]3[C@](C)(C=O)[C@@H](O)CC[C@]3(C)[C@H]2CC1` [SANDARACOPIMARADIENOLAL]: the Activity entry in the data set with BV-2 [1] was “Non-Toxic”. In addition, the 50% inhibitory concentration (IC50) in the data set on BV-2 [2] is more than 10 µM.
